Molecules are shown by their SMILES.

This is an account of results in patent publication USRE49850E1, “N-(pyridin-2-yl)-4-(thiazol-5-yl)pyrimidin-2-amine derivatives as therapeutic compounds” (AUCENTRA THERAPEUTICS PTY LTD, priority 2015, dated 2024).

One experiment addresses CDK7H (Homo sapiens, UniProt P50613). Briefly: Kinase assay CDK7H (radiometric profiling service). It is filed as biochemical. Conditions: for Ki: apparent Ki calculated from Km (ATP) and IC50, read-out: CDK inhibition Ki CDK7H. The method, boiled down:
(§1)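 Luminescent ADP-Glo read-out for CDK4/D1 (radiometric alternative); CDK7/2/1 radiometric via profiler. CDK4/D1: RB-CTF, Tris pH 7.5, MgCl2, DTT, BSA, ATP start, 40 min 37° C. 10-pt 1:3 series, 10 μM–0.5 nM. 4-PL IC50; Ki calc. from Km(ATP).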

The next experiment has as its target CDK 2A (Homo sapiens, UniProt P24941). Briefly: Kinase assay CDK2A (radiometric profiling service). Format: biochemical. Conditions: apparent Ki calculated from Km (ATP) and IC50; read-out: CDK inhibition Ki CDK 2A. The method, boiled down:
as §1

A further experiment relates to MDA-MB-453. The experiment is described as follows: Cell viability assay (MTT, solid tumour cell line) MDA-MB-453. Conditions: Homo sapiens, MDA-MB-453, 72 h; read-out: Anti-proliferative activity GI50 MDA-MB-453. It is filed as cell-based, human. An excerpt:
(§2) Compounds from Example 1 were subjected to a standard MTT (3-(4,5-dimethylthiazol-2-yl)-2,5-diphenyltetrazolium bromide) and resazurin assays on solid tumour cell lines and leukemia cell lines, respectively, as previously reported (Wang S et al., J Med Chem 47:1662-1675, 2004 and Diab S. et al. CheMedChem 9:962-972, 2014).

Another experiment concerns the target T1, CDK4D1 (Homo sapiens, UniProt P11802).
T1 construct: purchased Eurofins Pharma Discovery or Reaction Biology Corporation (service)
The experiment is described as follows: Kinase assay CDK4/D1 (radiometric or ADP Glo). It is filed as biochemical. To be noted: apparent Ki calculated from Km (ATP) and IC50; read-out: CDK inhibition Ki CDK4D1. The procedure, abridged:
as §1

The next experiment deals with CDK1B (Homo sapiens, UniProt P06493). Briefly: Kinase assay CDK1B (radiometric profiling service). Conditions: apparent Ki calculated from Km (ATP) and IC50; read-out: CDK inhibition Ki CDK1B. Format: biochemical. The procedure, abridged: as §1
A further experiment deals with T2, CDK9T1 (Homo sapiens, UniProt P50750).
T2 construct: purchased Eurofins Pharma Discovery or Reaction Biology Corporation (service)
The experiment is described as follows: Kinase assay CDK9/T1 (radiometric or ADP Glo). To be noted: for Ki: apparent Ki calculated from Km (ATP) and IC50, read-out: CDK inhibition Ki CDK9T1. Format: biochemical. The method, boiled down: (§3)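 Radiometric inhibition data for CDKs came from Eurofins or Reaction Biology profiling services; CDK4/D1 was also run in-house by ADP-Glo in […] pH 7.5, 20 mM MgCl2, 0.4 mM DTT, 0.1 mg/ml BSA with RB-CTF substrate, 40 min at 37 °C after ATP start. Ten-point 1:3 dilutions (10 μM–0.5 nM); four-parameter IC50, Ki from IC50 and ATP Km.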

The next experiment addresses T3, CDK6D3 (Homo sapiens, UniProt Q00534).
T3 construct: purchased Eurofins Pharma Discovery or Reaction Biology Corporation (service)
The experiment is described as follows: Kinase assay CDK6/D3 (radiometric or ADP Glo). It is filed as biochemical. Conditions: apparent Ki calculated from Km (ATP) and IC50; read-out: CDK inhibition Ki CDK6D3. The procedure, abridged:
as §3

The test system of a further experiment is MV4-11. The experiment is described as follows: Cell viability assay (resazurin, leukemia cell line) MV4-11. To be noted: Homo sapiens, MV4-11, 72 h; read-out: Anti-proliferative activity GI50 MV4-11. Format: cell-based, human.
Source text: as §2
(Alamar Blue is a resazurin reagent that responds to reducing activity.)

T2 sequence (P50750 whole entry): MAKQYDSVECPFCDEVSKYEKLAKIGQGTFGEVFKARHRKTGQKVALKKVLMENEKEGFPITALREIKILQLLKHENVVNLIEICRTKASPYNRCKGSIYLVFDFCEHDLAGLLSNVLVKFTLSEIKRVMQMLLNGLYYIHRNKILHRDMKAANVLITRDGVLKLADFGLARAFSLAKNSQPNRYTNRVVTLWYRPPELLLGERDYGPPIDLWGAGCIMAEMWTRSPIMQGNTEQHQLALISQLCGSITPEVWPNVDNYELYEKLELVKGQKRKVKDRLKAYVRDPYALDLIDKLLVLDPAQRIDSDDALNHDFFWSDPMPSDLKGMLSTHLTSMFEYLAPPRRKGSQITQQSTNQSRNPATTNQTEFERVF
T2 sequence (O60563 whole entry partner): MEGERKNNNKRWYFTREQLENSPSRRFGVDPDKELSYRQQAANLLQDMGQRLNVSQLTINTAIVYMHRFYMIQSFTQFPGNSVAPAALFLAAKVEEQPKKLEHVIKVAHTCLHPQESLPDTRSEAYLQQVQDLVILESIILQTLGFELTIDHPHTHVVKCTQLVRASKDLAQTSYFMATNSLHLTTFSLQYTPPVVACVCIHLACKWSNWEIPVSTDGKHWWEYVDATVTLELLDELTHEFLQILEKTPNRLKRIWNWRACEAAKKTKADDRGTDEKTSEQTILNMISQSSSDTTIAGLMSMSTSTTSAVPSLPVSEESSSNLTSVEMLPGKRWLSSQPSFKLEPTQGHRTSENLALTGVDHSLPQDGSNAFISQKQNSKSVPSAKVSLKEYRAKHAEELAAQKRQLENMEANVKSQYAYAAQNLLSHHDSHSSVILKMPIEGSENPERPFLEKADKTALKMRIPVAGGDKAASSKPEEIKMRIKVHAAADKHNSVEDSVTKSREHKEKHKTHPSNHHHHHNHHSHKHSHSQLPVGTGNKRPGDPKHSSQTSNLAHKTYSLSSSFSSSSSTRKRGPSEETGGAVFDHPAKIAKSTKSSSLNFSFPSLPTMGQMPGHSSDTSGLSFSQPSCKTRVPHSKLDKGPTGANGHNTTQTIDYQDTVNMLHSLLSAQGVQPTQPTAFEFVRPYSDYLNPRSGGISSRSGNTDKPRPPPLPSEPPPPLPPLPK
T3 sequence (Q00534 whole entry): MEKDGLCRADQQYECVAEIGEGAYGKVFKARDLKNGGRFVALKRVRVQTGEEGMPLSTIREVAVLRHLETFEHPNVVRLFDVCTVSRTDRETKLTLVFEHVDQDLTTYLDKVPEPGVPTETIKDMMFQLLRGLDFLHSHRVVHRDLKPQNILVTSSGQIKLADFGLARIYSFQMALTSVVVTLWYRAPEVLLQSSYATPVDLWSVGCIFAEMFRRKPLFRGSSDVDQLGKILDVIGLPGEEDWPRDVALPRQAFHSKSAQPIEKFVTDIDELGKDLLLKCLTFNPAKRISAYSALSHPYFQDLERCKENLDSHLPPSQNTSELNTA
T3 sequence (P30281 whole entry partner): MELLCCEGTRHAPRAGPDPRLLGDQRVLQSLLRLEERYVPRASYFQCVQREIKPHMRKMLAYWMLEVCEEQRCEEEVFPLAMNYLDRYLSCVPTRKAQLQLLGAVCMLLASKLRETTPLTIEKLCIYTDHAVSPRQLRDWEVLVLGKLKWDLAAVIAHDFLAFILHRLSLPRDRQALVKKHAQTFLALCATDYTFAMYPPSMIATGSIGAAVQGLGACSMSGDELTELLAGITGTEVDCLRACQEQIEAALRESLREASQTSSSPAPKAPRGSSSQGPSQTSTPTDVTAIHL
Chain of CDK1B (P06493 whole entry): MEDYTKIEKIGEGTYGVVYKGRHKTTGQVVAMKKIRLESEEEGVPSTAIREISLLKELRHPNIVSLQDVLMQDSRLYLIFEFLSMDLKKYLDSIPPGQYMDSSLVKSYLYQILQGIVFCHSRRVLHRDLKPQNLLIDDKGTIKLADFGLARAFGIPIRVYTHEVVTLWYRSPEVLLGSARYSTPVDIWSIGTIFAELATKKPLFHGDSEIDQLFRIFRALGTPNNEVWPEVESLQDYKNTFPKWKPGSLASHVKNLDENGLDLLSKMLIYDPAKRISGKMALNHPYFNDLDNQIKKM
Chain of CDK1B (P14635 whole entry partner): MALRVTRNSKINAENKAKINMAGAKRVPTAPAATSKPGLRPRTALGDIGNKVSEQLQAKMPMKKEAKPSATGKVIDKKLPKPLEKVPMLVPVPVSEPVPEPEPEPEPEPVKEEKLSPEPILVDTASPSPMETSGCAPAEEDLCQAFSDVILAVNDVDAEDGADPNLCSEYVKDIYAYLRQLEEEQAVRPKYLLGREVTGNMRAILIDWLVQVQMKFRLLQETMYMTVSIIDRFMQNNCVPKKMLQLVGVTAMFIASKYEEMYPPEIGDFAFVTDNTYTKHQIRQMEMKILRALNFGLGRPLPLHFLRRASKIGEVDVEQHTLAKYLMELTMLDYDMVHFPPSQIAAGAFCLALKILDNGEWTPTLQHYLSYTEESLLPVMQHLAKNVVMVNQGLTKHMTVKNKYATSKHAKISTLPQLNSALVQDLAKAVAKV
T1 sequence (P11802 whole entry): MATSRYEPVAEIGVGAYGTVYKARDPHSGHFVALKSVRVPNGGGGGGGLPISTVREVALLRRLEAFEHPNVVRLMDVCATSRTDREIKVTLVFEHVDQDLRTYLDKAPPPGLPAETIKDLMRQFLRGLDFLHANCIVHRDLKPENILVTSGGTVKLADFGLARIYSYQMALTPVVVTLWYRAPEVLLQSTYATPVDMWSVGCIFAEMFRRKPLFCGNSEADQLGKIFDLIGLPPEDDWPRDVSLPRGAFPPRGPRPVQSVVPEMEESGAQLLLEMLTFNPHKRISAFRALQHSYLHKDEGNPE
T1 sequence (P24385 whole entry partner): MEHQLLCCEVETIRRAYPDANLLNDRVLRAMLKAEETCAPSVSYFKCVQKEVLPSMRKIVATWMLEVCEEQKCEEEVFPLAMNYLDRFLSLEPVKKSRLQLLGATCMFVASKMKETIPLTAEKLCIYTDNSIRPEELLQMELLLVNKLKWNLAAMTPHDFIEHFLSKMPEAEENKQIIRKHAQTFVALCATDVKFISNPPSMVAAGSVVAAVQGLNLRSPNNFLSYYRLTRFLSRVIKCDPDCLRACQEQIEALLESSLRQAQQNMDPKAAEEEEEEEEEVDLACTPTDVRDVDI
Chain of CDK7H (P50613 whole entry): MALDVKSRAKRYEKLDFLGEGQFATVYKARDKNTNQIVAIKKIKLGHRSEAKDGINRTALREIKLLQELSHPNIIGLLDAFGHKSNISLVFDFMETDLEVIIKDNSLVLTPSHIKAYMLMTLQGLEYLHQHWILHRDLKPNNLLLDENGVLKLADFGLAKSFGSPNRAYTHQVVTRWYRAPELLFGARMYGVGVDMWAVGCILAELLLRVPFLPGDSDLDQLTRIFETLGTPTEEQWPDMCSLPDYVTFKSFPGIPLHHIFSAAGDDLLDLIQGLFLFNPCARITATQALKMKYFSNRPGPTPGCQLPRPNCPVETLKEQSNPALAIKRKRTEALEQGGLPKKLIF
Chain of CDK7H (P51946 whole entry partner): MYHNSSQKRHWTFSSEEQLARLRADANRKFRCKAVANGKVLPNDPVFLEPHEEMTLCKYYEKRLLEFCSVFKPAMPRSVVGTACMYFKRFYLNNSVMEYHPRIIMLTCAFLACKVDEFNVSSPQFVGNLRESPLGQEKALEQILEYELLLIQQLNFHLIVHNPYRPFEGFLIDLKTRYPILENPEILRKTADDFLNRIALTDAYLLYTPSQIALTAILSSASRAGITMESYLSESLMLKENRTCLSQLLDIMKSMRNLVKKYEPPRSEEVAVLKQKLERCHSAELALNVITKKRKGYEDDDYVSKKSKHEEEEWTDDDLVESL
Chain of CDK7H (P51948 whole entry partner): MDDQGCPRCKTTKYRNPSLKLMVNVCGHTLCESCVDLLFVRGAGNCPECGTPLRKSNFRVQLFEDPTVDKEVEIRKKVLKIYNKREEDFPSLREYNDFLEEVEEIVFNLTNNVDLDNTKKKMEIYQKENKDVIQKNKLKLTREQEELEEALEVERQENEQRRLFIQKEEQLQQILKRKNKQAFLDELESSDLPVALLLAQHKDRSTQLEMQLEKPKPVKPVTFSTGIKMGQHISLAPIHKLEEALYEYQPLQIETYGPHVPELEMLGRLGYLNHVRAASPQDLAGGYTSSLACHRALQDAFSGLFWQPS

As usually defined, the remaining activity is the signal under treatment as a percentage of the control signal. A word on the GI50: it is the concentration giving 50% growth inhibition. Regarding `CSc1nc(C)c(-c2ccnc(Nc3ccc(N4CCN(C(C)=O)CC4)cn3)n2)s1` [Compound 22, 1-(4-(6-((4-(4-methyl-2-(methylthio)thiazol-5-yl)pyrimidin-2-yl)amino)pyridin-3-yl)piperazin-1-yl)ethan-1-one], the remaining activity at 10 µM at CDK7H (compound at 10 μM, read-out: % remaining enzymatic activity at 10 μM CDK7H) was 86%; on CDK9T1 (compound at 10 μM, read-out: % remaining enzymatic activity at 10 μM CDK9T1), 80%. Further, the Ki on CDK 2A is 4760 nM; at CDK4D1, 190 nM; at CDK1B, over 5000 nM; on CDK6D3, 1950 nM. Also, the concentration for 50% growth inhibition (GI50) in the experiment with MDA-MB-453 was over 10000 nM; in the experiment on MV4-11, 2510 ± 432 nM.
Take `Cc1nc(SC(C)C)sc1-c1ccnc(Nc2ccc(N3CCNCC3)cn2)n1` [Compound 23, 4-(2-(isopropylthio)-4-methylthiazol-5-yl)-N-(5-(piperazin-1-yl)pyridin-2-yl)pyrimidin-2-amine]: the Ki is over 5000 nM at CDK7H; 180 nM on CDK 2A; 30 nM at CDK4D1; over 5000 nM at CDK1B; over 5000 nM on CDK9T1; 200 nM at CDK6D3. The GI50 in the experiment on MDA-MB-453 stood at 461 ± 59 nM; with MV4-11 it was 73 ± 25 nM.
Regarding `Cc1nc(SC(C)C)sc1-c1ccnc(Nc2ccc(N3CCN(C)CC3)cn2)n1` [Compound 24, 4-(2-(isopropylthio)-4-methylthiazol-5-yl)-N-(5-(4-methylpiperazin-1-yl)pyridin-2-yl)pyrimidin-2-amine], the Ki is over 5000 nM on CDK7H; 180 nM at CDK 2A; 1 nM on CDK4D1; 3990 nM at CDK1B; 4610 nM at CDK9T1; 15 nM at CDK6D3. Also, the 50% growth inhibitory concentration (GI50) with MDA-MB-453 stood at 4880 ± 214 nM; in the experiment with MV4-11 it was 66 ± 19 nM.
For the compound `CC(=O)N1CCN(c2ccc(Nc3nccc(-c4sc(SC(C)C)nc4C)n3)nc2)CC1` [Compound 25, 1-(4-(6-((4-(2-(isopropylthio)-4-methylthiazol-5-yl)pyrimidin-2-yl)amino)pyridin-3-yl)piperazin-1-yl)ethan-1-one], the Ki on CDK7H is over 5000 nM; at CDK 2A, 75 nM; on CDK4D1 it was 5 nM; at CDK1B, over 5000 nM; at CDK9T1, over 5000 nM; at CDK6D3 it was 20 nM. The GI50 with MDA-MB-453 is 514 ± 50 nM; in the experiment on MV4-11, 537 ± 117 nM.
Regarding `CNc1nc(C)c(-c2nc(Nc3ccc(N4CCNCC4)cn3)ncc2F)s1` [Compound 28, 5-(5-fluoro-2-((5-(piperazin-1-yl)pyridin-2-yl)amino)pyrimidin-4-yl)-N,4-dimethylthiazol-2-amine], the Ki at CDK7H was over 5000 nM; at CDK 2A, 236 nM; on CDK4D1, 4 nM; on CDK1B, 1360 nM; at CDK9T1 it was 784 nM; on CDK6D3 it was 32 nM. For the same compound, the GI50 with MDA-MB-453 is 248 ± 44 nM; in the experiment with MV4-11, 12 ± 3 nM.
As to `CNc1nc(C)c(-c2ccnc(Nc3ccc(N4CCN(C(C)=O)CC4)cn3)n2)s1` [Compound 33, 1-(4-(6-((4-(4-methyl-2-(methylamino)thiazol-5-yl)pyrimidin-2-yl)amino)pyridin-3-yl)piperazin-1-yl)ethan-1-one], the Ki is over 5000 nM at CDK7H; 310 nM at CDK 2A; 578 nM at CDK4D1; 3100 nM on CDK1B; over 5000 nM at CDK9T1; 3030 nM at CDK6D3. Further, the 50% growth inhibitory concentration (GI50) in the experiment on MDA-MB-453 is 5840 ± 279 nM; in the experiment on MV4-11, 154 ± 74 nM.
Regarding `CNc1nc(C)c(-c2nc(Nc3ccc(N4CCN(C(C)=O)CC4)cn3)ncc2F)s1` [Compound 35, 1-(4-(6-((5-fluoro-4-(4-methyl-2-(methylamino)thiazol-5-yl)pyrimidin-2-yl)amino)pyridin-3-yl)piperazin-1-yl)ethan-1-one], the Ki on CDK7H was over 5000 nM; at CDK 2A, 178 nM; at CDK4D1, 17 nM; at CDK1B, 1820 nM; at CDK9T1 it was 4070 nM; at CDK6D3 it was 46 nM. The GI50 is 4910 ± 432 nM in the experiment with MDA-MB-453 and 35 ± 4 nM with MV4-11.
For `CNc1nc(C)c(-c2nc(Nc3ccc(N4CCOCC4)cn3)ncc2F)s1` [Compound 38, 5-(5-fluoro-2-((5-morpholinopyridin-2-yl)amino)pyrimidin-4-yl)-N,4-dimethylthiazol-2-amine], the Ki at CDK7H is over 5000 nM; at CDK 2A, 100 nM; on CDK4D1, 5 nM; at CDK1B, 3320 nM; at CDK9T1, over 5000 nM; on CDK6D3, 30 nM. Further, the concentration for 50% growth inhibition (GI50) worked out at 5410 ± 801 nM in the experiment on MDA-MB-453 and 69 ± 5 nM in the experiment on MV4-11.
For `Cc1nc(N(C)C)sc1-c1ccnc(Nc2ccc(N3CCNCC3)cn2)n1` [Compound 43, N,N,4-trimethyl-5-(2-((5-(piperazin-1-yl)pyridin-2-yl)amino)pyrimidin-4-yl)thiazol-2-amine], the Ki is over 5000 nM on CDK7H; 903 nM at CDK 2A; 21 nM on CDK4D1; over 5000 nM at CDK1B; over 5000 nM on CDK9T1; 56 nM on CDK6D3. In addition, the GI50 in the experiment on MDA-MB-453 turned out to be 894 ± 91 nM; with MV4-11, 11 ± 21 nM.
In the case of `Cc1nc(N(C)C)sc1-c1nc(Nc2ccc(N3CCNCC3)cn2)ncc1F` [Compound 44, 5-(5-fluoro-2-((5-(piperazin-1-yl)pyridin-2-yl)amino)pyrimidin-4-yl)-N,N,4-trimethylthiazol-2-amine], the Ki at CDK7H is over 5000 nM; on CDK 2A, 335 nM; on CDK4D1, 4 nM; at CDK1B it was over 5000 nM; on CDK9T1, over 5000 nM; at CDK6D3 it was 40 nM. The GI50 with MDA-MB-453 was 237 ± 44 nM; with MV4-11, 48 ± 4 nM.
For the compound `Cc1nc(N(C)C)sc1-c1ccnc(Nc2ccc(N3CCN(C)CC3)cn2)n1` [Compound 45, N,N,4-trimethyl-5-(2-((5-(4-methylpiperazin-1-yl)pyridin-2-yl)amino)pyrimidin-4-yl)thiazol-2-amine], the Ki on CDK7H was over 5000 nM; at CDK 2A, 1430 nM; at CDK4D1, 30 nM; at CDK1B it was over 5000 nM; at CDK9T1, over 5000 nM; at CDK6D3, 154 nM. In addition, the GI50 with MDA-MB-453 is 2100 ± 787 nM; in the experiment on MV4-11, 92 ± 4 nM.
Take `CC(=O)N1CCN(c2ccc(Nc3nccc(-c4sc(N(C)C)nc4C)n3)nc2)CC1` [Compound 48, 1-(4-(6-((4-(2-(dimethylamino)-4-methylthiazol-5-yl)pyrimidin-2-yl)amino)pyridin-3-yl)piperazin-1-yl)ethan-1-one]: the Ki was over 5000 nM on CDK7H; 976 nM on CDK 2A; 87 nM at CDK4D1; over 5000 nM at CDK1B; over 5000 nM on CDK9T1; 234 nM on CDK6D3. Also, the GI50 with MDA-MB-453 was 4720 ± 715 nM; in the experiment with MV4-11, 537 ± 133 nM.
Take `CC(=O)N1CCN(c2ccc(Nc3ncc(F)c(-c4sc(N(C)C)nc4C)n3)nc2)CC1` [Compound 49, 1-(4-(6-((4-(2-(dimethylamino)-4-methylthiazol-5-yl)-5-fluoropyrimidin-2-yl)amino)pyridin-3-yl)piperazin-1-yl)ethan-1-one]: the Ki on CDK7H is over 5000 nM; on CDK 2A, 1040 nM; on CDK4D1 it was 24 nM; on CDK1B, over 5000 nM; on CDK9T1 it was over 5000 nM; at CDK6D3, 366 nM. The values for the 50% growth inhibitory concentration (GI50) in the experiment on MDA-MB-453 and in the experiment with MV4-11 were 2370 ± 26 nM and 208 ± 30 nM, respectively.
